US12492173B2, “Herbicidal substituted N-tetrazolyl aryl carboxamides” (Bayer Aktiengesellschaft, priority 2019, dated 2025)

Columns and labels:
Type in all cases: in vivo
Cyperus esculentus = test: Pre-emergence herbicidal action, CYPES; set-up: key: % activity: 100 = plants have died, 0 = like control plants; settings: comparative experiment
From the text: (§1) 1. Pre-Emergence Herbicidal Action Against Harmful Plants Seeds of monocotyledonous and dicotyledonous weed plants and crop plants are laid out in sandy loam soil in wood-fiber pots and covered with soil. The compounds of the invention, formulated in the form of wettable powders (WP) or as emulsion concentrates (EC), are then applied to the surface of the covering soil in the form of an aqueous suspension or emulsion at a water application rate equating to 600 to 800 l/ha, with addition of 0.2% wetting agent. After the treatment, the pots are placed in a greenhouse and kept under good growth conditions for the trial plants. The damage to the test plants is scored visually after a test period of 3 weeks by comparison with untreated controls (herbicidal activity in percent (%): 100% activity=the plants have died, 0% activity=like control plants). […] The tables below illustrate, in an exemplary manner, the […] herbicidal action of the compounds according to the invention, the herbicidal activity being stated in percent. [table] In the experiments that follow, herbicidal action of numerous inventive compounds and the known compounds that are structurally closest from D1 (WO 2012/028579 A1) and D2 (WO 2018/202535 A1) were compared under the above-specified conditions by the pre-emergence and post-emergence method. The example numbers given in the tables relate to the compounds disclosed in the respective documents. In addition to the compounds disclosed in D1 and D2, the following compounds V-1 to V-14 that are encompassed by D1 or D2 but are not compounds specified therein were used in the comparative experiments: • V-1: 2-(methylsulfanyl)-3-(methylsulfinyl)-N-(1-methyl-1H-tetrazol-5-yl)-4-(trifluoromethyl)benzamide • V-2: 2-(methylsulfanyl)-3-(methylsulfonyl)-N-(1-methyl-1H-tetrazol-5-yl)-4-(trifluoromethyl)benzamide • V-3: 2,3-bis(ethylsulfanyl)-N-(1-methyl-1H-tetrazol-5-yl)-4-(trifluoromethyl)benzamide • V-4: 2-chloro-3-(ethylsulfanyl)-N-(1-methyl-1H-tetrazol-5-yl)-4-(trifluoromethyl)benzamide • V-5: 2-chloro-4-iodo-3-(methylsulfanyl)-N-(1-methyl-1H-tetrazol-5-yl)benzamide • V-6: 2-chloro-4-iodo-3-(methylsulfinyl)-N-(1-methyl-1H-tetrazol-5-yl)benzamide • V-7: 2-chloro-4-iodo-3-(methylsulfonyl)-N-(1-methyl-1H-tetrazol-5-yl)benzamide • V-8: 2-bromo-3-(methylsulfanyl)-N-(1-methyl-1H-tetrazol-5-yl)-4-(trifluoromethyl)benzamide • V-9: 2-bromo-3-(methylsulfinyl)-N-(1-methyl-1H-tetrazol-5-yl)-4-(trifluoromethyl)benzamide • V-10: 2-bromo-3-(methylsulfonyl)-N-(1-methyl-1H-tetrazol-5-yl)-4-(trifluoromethyl)benzamide • V-11: 2-bromo-3-(ethylsulfanyl)-N-(1-methyl-1H-tetrazol-5-yl)-4-(trifluoromethyl)benzamide • V-12: 2-bromo-3-(ethylsulfinyl)-N-(1-methyl-1H-tetrazol-5-yl)-4-(trifluoromethyl)benzamide • V-13: 2-bromo-3-(ethylsulfonyl)-N-(1-methyl-1-1H-tetrazol-5-yl)-4-(trifluoromethyl)benzamide • V-14: 2-cyclopropyl-3-(ethylsulfanyl)-N-(1-methyl-1H-tetrazol-5-yl)-4-(trifluoromethyl)benzamide Herbicidal Pre-Emergence Action: […]

Polygonum convolvulus = test: Post-emergence herbicidal action, POLCO; settings: comparative experiment, post-emergence, 5 g of a.i./ha
In short: (§2)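 Greenhouse weeds grown in sandy loam were sprayed at the one-leaf stage, 2–3 weeks after sowing, with WP or EC formulations at 600–800 l/ha water plus 0.2% wetting agent. Damage scored visually about 3 weeks later, in percent against untreated controls (100% = plants dead).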

Abutilon theophrasti [1] = test: Pre-emergence herbicidal action, ABUTH; set-up: key to Herbicidal action against ABUTH: % activity: 100 = plants have died, 0 = like control plants; settings: comparative experiment
In short: (§3)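 Greenhouse pre-emergence test: formulated compound (WP or EC) applied in water to the soil covering sown seeds, 600–800 l/ha, 0.2% wetting agent. Scored visually in percent at 3 weeks versus untreated plants.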

Lolium multiflorum = test: Post-emergence herbicidal action, LOLMU; set-up: key: % herbicidal action: 100 = plants died, 0 = like control; settings: comparative experiment, post-emergence, 5 g of a.i./ha
Experimental: [table] 2. Post-Emergence Herbicidal Action Against Harmful Plants Seeds of monocotyledonous and dicotyledonous weed and crop plants are laid out in sandy loam soil in wood-fiber pots, covered with soil and cultivated in a greenhouse under good growth conditions. 2 to 3 weeks after sowing, the test plants are treated at the one-leaf stage. The compounds of the invention, formulated in the form of wettable powders (WP) or as emulsion concentrates (EC), are then sprayed onto the green parts of the plants in the form of an aqueous suspension or emulsion at a water application rate equating to 600 to 800 l/ha, with addition of 0.2% wetting agent. After the test plants have been left to stand in the greenhouse under optimal growth conditions for about 3 weeks, the action of the preparations is assessed visually in comparison to untreated controls (herbicidal action in percent (%): 100% activity=the plants have died, 0% activity=like control plants). […] The tables below illustrate, in an exemplary manner, the post-emergence herbicidal action of the compounds according to the invention, the herbicidal activity being stated in percent. In the experiments that follow, herbicidal action of numerous inventive compounds and the known compounds that are structurally closest from D1 (WO 2012/028579 A1) and D2 (WO 2018/202535 A1) were compared under the above-specified conditions by the pre-emergence and post-emergence method. The example numbers given in the tables relate to the compounds disclosed in the respective documents. In addition to the compounds disclosed in D1 and D2, the following compounds V-1 to V-14 that are encompassed by D1 or D2 but are not compounds specified therein were used in the comparative experiments: • V-1: 2-(methylsulfanyl)-3-(methylsulfinyl)-N-(1-methyl-1H-tetrazol-5-yl)-4-(trifluoromethyl)benzamide • V-2: 2-(methylsulfanyl)-3-(methylsulfonyl)-N-(1-methyl-1H-tetrazol-5-yl)-4-(trifluoromethyl)benzamide • V-3: 2,3-bis(ethylsulfanyl)-N-(1-methyl-1H-tetrazol-5-yl)-4-(trifluoromethyl)benzamide • V-4: 2-chloro-3-(ethylsulfanyl)-N-(1-methyl-1H-tetrazol-5-yl)-4-(trifluoromethyl)benzamide • V-5: 2-chloro-4-iodo-3-(methylsulfanyl)-N-(1-methyl-1H-tetrazol-5-yl)benzamide • V-6: 2-chloro-4-iodo-3-(methylsulfinyl)-N-(1-methyl-1H-tetrazol-5-yl)benzamide • V-7: 2-chloro-4-iodo-3-(methylsulfonyl)-N-(1-methyl-1H-tetrazol-5-yl)benzamide • V-8: 2-bromo-3-(methylsulfanyl)-N-(1-methyl-1H-tetrazol-5-yl)-4-(trifluoromethyl)benzamide • V-9: 2-bromo-3-(methylsulfinyl)-N-(1-methyl-1H-tetrazol-5-yl)-4-(trifluoromethyl)benzamide • V-10: 2-bromo-3-(methylsulfonyl)-N-(1-methyl-1H-tetrazol-5-yl)-4-(trifluoromethyl)benzamide • V-11: 2-bromo-3-(ethylsulfanyl)-N-(1-methyl-1H-tetrazol-5-yl)-4-(trifluoromethyl)benzamide • V-12: 2-bromo-3-(ethylsulfinyl)-N-(1-methyl-1H-tetrazol-5-yl)-4-(trifluoromethyl)benzamide • V-13: 2-bromo-3-(ethylsulfonyl)-N-(1-methyl-1-1H-tetrazol-5-yl)-4-(trifluoromethyl)benzamide • V-14: 2-cyclopropyl-3-(ethylsulfanyl)-N-(1-methyl-1H-tetrazol-5-yl)-4-(trifluoromethyl)benzamide Herbicidal Pre-Emergence Action: […]

Alopecurus myosuroides [2] = test: Post-emergence herbicidal action, ALOMY; set-up: key: % herbicidal action vs untreated; 100 = plants died, 0 = like control; settings: comparative experiment, post-emergence, 5 g of a.i./ha
In short: as §2

Stellaria media [3] = test: Post-emergence herbicidal action, STEME; set-up: key: % herbicidal action vs untreated; 100 = plants died, 0 = like control; settings: comparative experiment, post-emergence, 5 g of a.i./ha
In short: as §2

Veronica persica [4] = test: Post-emergence herbicidal action, VERPE; set-up: key: % herbicidal action vs untreated; 100 = plants died, 0 = like control; settings: comparative experiment, post-emergence
In short: as §2

Veronica persica [5] = test: Pre-emergence herbicidal action, VERPE; set-up: key to Herbicidal action against VERPE: % activity: 100 = plants have died, 0 = like control plants; settings: comparative experiment, 20 g of a.i./ha
In short: as §3

Avena fatua = test: Post-emergence herbicidal action, AVEFA; set-up: key: % herbicidal action vs untreated; 100 = plants died, 0 = like control; settings: comparative experiment, post-emergence, 5 g of a.i./ha
In short: as §2

Alopecurus myosuroides [6] = test: Pre-emergence herbicidal action, ALOMY; set-up: key: % activity: 100 = plants have died, 0 = like control plants; settings: comparative experiment
From the text: as §1

Matricaria inodora [7] = test: Pre-emergence herbicidal action, MATIN; set-up: key to Herbicidal action against MATIN: % activity: 100 = plants have died, 0 = like control plants; settings: comparative experiment, 20 g of a.i./ha
In short: as §3

Setaria viridis [8] = test: Pre-emergence herbicidal action, SETVI; set-up: key to Herbicidal action against SETVI: % activity: 100 = plants have died, 0 = like control plants; settings: comparative experiment
In short: as §3

Matricaria inodora [9] = test: Post-emergence herbicidal action, MATIN; set-up: key: % herbicidal action vs untreated; 100 = plants died, 0 = like control; settings: comparative experiment, post-emergence
In short: as §2

Stellaria media [10] = test: Pre-emergence herbicidal action, STEME; set-up: key to Herbicidal action against STEME: % activity: 100 = plants have died, 0 = like control plants; settings: comparative experiment, 80 g of a.i./ha
In short: as §3

Viola tricolor [11] = test: Post-emergence herbicidal action, VIOTR; set-up: key: % herbicidal action vs untreated; 100 = plants died, 0 = like control; settings: comparative experiment, post-emergence, 20 g of a.i./ha
In short: as §2

Echinochloa crus-galli [12] = test: Post-emergence herbicidal action, ECHCG; set-up: key: % herbicidal action vs untreated; 100 = plants died, 0 = like control; settings: comparative experiment, post-emergence, 20 g of a.i./ha
In short: as §2

Viola tricolor [13] = test: Pre-emergence herbicidal action, VIOTR; set-up: key to Herbicidal action against VIOTR: % activity: 100 = plants have died, 0 = like control plants; settings: comparative experiment, 80 g of a.i./ha
In short: as §3

Setaria viridis [14] = test: Post-emergence herbicidal action, SETVI; set-up: key: % herbicidal action vs untreated; 100 = plants died, 0 = like control; settings: comparative experiment, post-emergence, 20 g of a.i./ha
In short: as §2

Abutilon theophrasti [15] = test: Post-emergence herbicidal action, ABUTH; set-up: key: % herbicidal action vs untreated; 100 = plants died, 0 = like control; settings: comparative experiment, post-emergence, 20 g of a.i./ha
In short: as §2

Echinochloa crus-galli [16] = test: Pre-emergence herbicidal action, ECHCG; settings: Echinochloa crus-galli, 504 h, comparative experiment, 80 g of a.i./ha, read-out: Herbicidal action against ECHCG
In short: as §3

Amaranthus retroflexus = test: Post-emergence herbicidal action, AMARE; set-up: key: % herbicidal action vs untreated; 100 = plants died, 0 = like control; settings: comparative experiment, post-emergence, 20 g of a.i./ha
In short: as §2

SMILES: CCSc1c(C(F)(F)F)ccc(C(=O)Nc2nnnn2C)c1Cl [Example V-4, 2-chloro-3-(ethylsulfanyl)-N-(1-methyl-1H-tetrazol-5-yl)-4-(trifluoromethyl)benzamide, reference compound]
- Herbicidal action against CYPES (Cyperus esculentus; 20 g of a.i./ha): 0
- Herbicidal action against POLCO (Polygonum convolvulus): 30
- Herbicidal action against ABUTH (Abutilon theophrasti [1]; 20 g of a.i./ha): 0
- Herbicidal action against LOLMU (Lolium multiflorum): 10
- Herbicidal action against ALOMY (Alopecurus myosuroides [2]): 40
- Herbicidal action against STEME (Stellaria media [3]): 60
- Herbicidal action against VERPE (Veronica persica [4]; 5 g of a.i./ha): 80
- Herbicidal action against VERPE (Veronica persica [5]): 80
- Herbicidal action against AVEFA (Avena fatua): 30
- Herbicidal action against ALOMY (Alopecurus myosuroides [6]; 20 g of a.i./ha): 40
- Herbicidal action against MATIN (Matricaria inodora [7]): 50
- Herbicidal action against SETVI (Setaria viridis [8]; 20 g of a.i./ha): 60
- Herbicidal action against MATIN (Matricaria inodora [9]; 5 g of a.i./ha): 60

SMILES: CC[S+]([O-])c1c(C(F)(F)F)ccc(C(=O)Nc2nnnn2C)c1Br (stereo not drawn) [Example V-12, 2-bromo-3-(ethylsulfinyl)-N-(1-methyl-1H-tetrazol-5-yl)-4-(trifluoromethyl)benzamide, reference compound]
- Herbicidal action against CYPES (Cyperus esculentus; 80 g of a.i./ha): 0
- Herbicidal action against STEME (Stellaria media [10]): 0
- Herbicidal action against VIOTR (Viola tricolor [11]): 0
- Herbicidal action against ABUTH (Abutilon theophrasti [1]; 80 g of a.i./ha): 0
- Herbicidal action against VERPE (Veronica persica [4]; 20 g of a.i./ha): 0
- Herbicidal action against ECHCG (Echinochloa crus-galli [12]): 0
- Herbicidal action against VIOTR (Viola tricolor [13]): 0
- Herbicidal action against ALOMY (Alopecurus myosuroides [6]; 80 g of a.i./ha): 0
- Herbicidal action against SETVI (Setaria viridis [14]): 20
- Herbicidal action against SETVI (Setaria viridis [8]; 80 g of a.i./ha): 0
- Herbicidal action against ABUTH (Abutilon theophrasti [15]): 0
- Herbicidal action against MATIN (Matricaria inodora [9]; 20 g of a.i./ha): 0
- pest or weed control at 80 g/ha (Echinochloa crus-galli [16]): 0%
- Herbicidal action against AMARE (Amaranthus retroflexus): 10
